In patent publication EP0023575A1, “Benzene sulfonyl semicarbazides, their preparation and use, pharmaceutical formulations containing them and their preparation” (HOECHST AKTIENGESELLSCHAFT, priority 1979, dated 1981):

System: normal ernährte Kaninchen
Assay: Blood sugar lowering in normally fed rabbits after oral administration (autoanalyzer)
Format: in vivo
Description: Die blutzuckersenkende Wirkung der beschriebenen Benzolsulfonylsemicarbazide kann dadurch festgestellt werden, daß man sie als freie Verbindung oder in Form der Natriumsalze an normal ernährte Kaninchen verfüttert und den Blutzuckerwert nach der bekannten Methode von Hagedorn-Jensen oder mit einem Autoanalyzer über eine längere Zeitdauer ermittelt.
Die routinemäßige Bestimmung der blutzuckersenkenden Wirkung kann mit Dosierungen von z.B. 10,2 oder 0,4 mg Wirksubstanz pro kg Versuchstier nach bekannten Methoden erfolgen.
4-(4-<2-(1-Oxo-isoindolin-2-carboxamido)-äthyl> -benzolsulfonyl)-1,1-hexamethylen-semicarbazid wurde in einer Dosierung von 0,4 mg/kg Kaninchen verabreicht und die Blutzuckerwerte wurden mit einem Autoanalyzer über eine längere Zeitdauer ermittelt. Die hierbei gemessene Blutzuckersenkung ist in der nachfolgenden Tabelle in % nach.... Stunden angegeben. In der Tabelle ist ferner die Blutzuckersenkung in % angegeben, die nach p.o. Verabreichung von 0,08 mg/kg Kaninchen beobachtet wurde.

SMILES: O=C(NN1CCCCCC1)NS(=O)(=O)c1ccc(CCNC(=O)N2Cc3ccccc3C2=O)cc1 [4-(4-<2-(1-Oxo-isoindolin-2-carboxamido)-äthyl> -benzolsulfonyl)-1,1-hexamethylen-semicarbazid]
- Blutzuckersenkung an Kaninchen in % (0,4 mg/kg p.o., after 1 hour): 26%
- Blutzuckersenkung an Kaninchen in % (0,4 mg/kg p.o., after 3 hours): 31%
- Blutzuckersenkung an Kaninchen in % (0,4 mg/kg p.o., after 5 hours): 43%
- Blutzuckersenkung an Kaninchen in % (0,4 mg/kg p.o., after 24 hours): 37%
- Blutzuckersenkung an Kaninchen in % (0,4 mg/kg p.o., after 48 hours): 0%
- Blutzuckersenkung an Kaninchen in % (0,08 mg/kg p.o., after 1 hour): 11%
- Blutzuckersenkung an Kaninchen in % (0,08 mg/kg p.o., after 3 hours): 22%
- Blutzuckersenkung an Kaninchen in % (0,08 mg/kg p.o., after 5 hours): 33%
